Source: PMC6114104 (International Journal for Parasitology: Drugs and Drug …, 2018)
Where a name gives a salt, the structure may show the parent alone. Read-outs that look alike come from different tables or passages of the source. Marks after values point to notes of the source that are not given here.

Experiments:
[1] = test system: BT cells (bovine turbinate cells); conditions: uninfected BT cells, 3 days; 100 μM maximum concentration tested
[2] = test system: S. neurona + GFP/FLUC parasites; assay: Luciferase-based S. neurona growth inhibition, EC50 determination; conditions: for EC50: Sarcocystis neurona; for TI (TC50/EC50): ratio of BT cell TC50 to S. neurona EC50
[3] = test system: Cryptosporidium parvum; conditions: ref Bessoff et al., 2013; cited from earlier work
[4] = test system: T. gondii; conditions: ref Dittmar et al., 2016; Wang et al., 2017; Bowden, unpublished data; cited from earlier work
[5] = test system: P. falciparum; conditions: PubChem BioAssay; ref Wang et al., 2017; cited from earlier work
[6] = horses, ref DiMaio Knych et al., 2011, cited from earlier work
[7] = test system: S. neurona + GFP/FLUC parasites; assay: microbe, parasite or virus in culture; type: cell-based, Sarcocystis neurona; conditions: for Effect on S. neurona growth reflected by increases in FLUC activity: 10 μM HTS, not confirmed with secondary screening
[8] = test system: S. neurona; conditions: ref Gargala et al., 2009, cited from earlier work
[9] = test system: S. neurona parasites; conditions: ref Lindsay and Dubey, 1999; cited from earlier work
[10] = 96 h, read-out: EC50 in μM (95% CI)

Row | SMILES | EC50 [2, 10] [µM] | TI (TC50/EC50) [2] | TC50 [1] [µM] | other results
1 | O=C(c1ccc(F)cc1)C1CCN(CCn2c(=S)[nH]c3ccccc3c2=O)CC1 [Altanserin] | 3.5 | 29 |  | TC50 in μM [1]: >100 ^a μM
2 | C[C@H]1[C@H](OC(=O)CCC(=O)O)O[C@@H]2O[C@@]3(C)CC[C@H]4[C@H](C)CC[C@@H]1[C@@]24OO3 [Artesunate] | 3.3 | 30 | >100 | 
3 | CN1CCCC(n2nc(Cc3ccc(Cl)cc3)c3ccccc3c2=O)CC1 (stereo not drawn) [Azelastine HCl] | 2.5 | 11 | 28 | 
4 | CCCCCCNC(=O)n1cc(F)c(=O)[nH]c1=O [Carmofur] | 0.73 | 137 | >100 | Activity against Cryptosporidium parvum [3]: active; Activity against T. gondii [4]: active; Activity against P. falciparum [5]: active
5 | Oc1c(Cl)cc(Cl)c2cccnc12 [Chloroxine] | 2.5 | 6 | 16 | 
6 | CC(C)/N=c1\cc2n(-c3ccc(Cl)cc3)c3ccccc3nc-2cc1Nc1ccc(Cl)cc1 [Clofazimine] | 3.7 | 27 | >100 | 
7 | O=C1CN(/N=C/c2ccc(-c3ccc([N+](=O)[O-])cc3)o2)C(O)=N1 [Dantrolene] | 0.065 | 800 | 52 | Peak plasma concentration ([6]; 500 mg capsules, converted): 85.95 nM; Peak plasma concentration ([6]; 500 mg capsules): 28.9 ± 21.6 ng/mL; Peak plasma concentration ([6]; 500 mg paste, converted): 112.4 nM; Peak plasma concentration ([6]; 500 mg paste): 37.8 ± 12.8 ng/mL; Time of peak plasma concentration after administration ([6]; both formulations (capsules and paste)): 3.8 h; EC50 ([2]; read-out: EC50 for S. neurona inhibition in ng/ml): 21.9 ng/mL
8 | O=c1c(-c2ccccc2)c1-c1ccccc1 [Diphenylcyclopropenone] | 2.5 | 8 | 19 | 
9 | CCN(CC)C(=S)SSC(=S)N(CC)CC [Disulfiram] | 0.15 |  | 20 | 
10 | O=c1[nH]cc(F)c(=O)[nH]1 [Fluorouracil] | 0.79 | 99 | 78 | Activity against Cryptosporidium parvum [3]: active; Activity against T. gondii [4]: active; Activity against P. falciparum [5]: active
11 | Oc1c(Cl)cc(Cl)c(Cl)c1Cc1c(O)c(Cl)cc(Cl)c1Cl [Hexachlorophene] | 2.8 | 20 | 56 | 
12 | Cl.O=C1[C@H]2CCCC[C@H]2C(=O)N1CCCCN1CCN(c2nsc3ccccc23)CC1 [Perospirone HCl] |  | 25 | 86 | 
13 | OCCN1CCN(CCCN2c3ccccc3Sc3ccc(Cl)cc32)CC1 [Perphenazine] | 3.3 | 4 | 14 | 
14 | COc1cc2nc(N3CCN(C(=O)c4ccco4)CC3)nc(N)c2cc1OC [Prazosin] | 6 | 8 | 45 | 
15 | COc1cc(NC(C)CCCN)c2ncccc2c1 (stereo not drawn) [Primaquine phosphate] | 2.2 | 21 | 47 | 
16 | CCc1nc(N)nc(N)c1-c1ccc(Cl)cc1 [Pyrimethamine] | 3.9 | 26 | >100 | FLUC activity of treated parasites ([2]; 10 μM, measured every 2 days over 10-day incubation): severely diminished FLUC activity; EC50 ([2]; read-out: EC50 of pyrimethamine (HTS validation, Fig. 2B)): 3.22 µM
17 | CN1CCN(CC/C=C2/c3ccccc3Sc3ccc(S(=O)(=O)N(C)C)cc32)CC1 [Thiothixene] | 6.3 | 5 | 30 | 
18 | CCCSc1ccc2nc(NC(=O)OC)[nH]c2c1 [albendazole] |  |  |  | Effect on S. neurona growth reflected by increases in FLUC activity [7]: growth-enhancing
19 | CC(=O)Oc1ccccc1C(=O)Nc1ncc([N+](=O)[O-])s1 [nitazoxanide] | ~12 |  |  | Reported mean 90% inhibitory activity against S. neurona, in μM ([8]; approximate conversion): approximately 6.2 μM; Reported mean 90% inhibitory activity against S. neurona [8]: 1.9 mg/L
20 | c1ccc2[nH]c(-c3cscn3)nc2c1 [thibendazole] |  |  |  | Effect on S. neurona growth reflected by increases in FLUC activity [7]: growth-enhancing
21 | COc1cc(Cc2cnc(N)nc2N)cc(OC)c1OC [trimethoprim] | ~19 |  |  | inhibition at 10 µM ([7]; Sarcocystis neurona, read-out: % inhibition of parasite growth in HTS): ≤ 80%; Reported EC50 for S. neurona parasites in vitro [9]: 2.5 µg/mL
22 | Cc1ccc(-c2nc3ccc(C)cn3c2CC(=O)N(C)C)cc1 [zolpidem tartrate] |  |  |  | Effect on S. neurona growth reflected by increases in FLUC activity [7]: growth-enhancing
